Assay results taken from patent US20090255440A1, “Benzothioxanthene dyes with improved application and toxicological properties” (Clariant International Ltd., priority 2008, published 2009).

Assays:
[1] = tested on: Salmonella typhimurium Strain TA98; test: Ames test for mutagenity (OECD 471); format: cell-based
Description: Due to the availability of different grades of Solvent Orange 63 for the corrosion tests, we decided to submit them all to an Ames test, one of several genotoxicity assays for the assessment of product safety.
The Ames test is a screening for the mutagenic effect of substances on microorganisms, cells and tissue cultures and therefore their potential carcinogenic effect. This relies on the observation that the most common cause of cancer is somatic mutations brought about by DNA damage. Chemicals that damage bacterial DNA, and induce mutations, are therefore likely to cause mutations in mammalian cells. Assay is done using bacteria, which gives fast and relatively cheap results and avoids the controversial tests on animals.
The strains used are among those recommended by OECD 471: Salmonella typhimurium and Escherichia coli.
Solvent Orange 63 as prepared above was subjected to Ames test for mutagenity. The strains used are among those recommended by OECD 471: Salmonella typhimurium and E. coli.

[2] = LLNA test for skin sensitization (OECD Guideline 429); format: in vivo; conditions: OECD Guideline 429, suitable vehicle, for example acetone:olive oil (4+1)
Description: We further submitted the same samples to a LLNA screening, in order to assess the potential skin sensitization properties of the product.
The Local Lymph Node Assay (LLNA) is an alternative to the guinea pig sensitization test which is employed by the pharmaceutical, chemical, consumer product and cosmetic industries to identify and characterize substances with immunotoxic properties.
Solvent Orange 63 as prepared above was subjected to LLNA test for skin sensitization, according to OECD Guideline 429 in suitable vehicle, for example acetone:olive oil (4+1).

[3] = in the presence of S9 mix (metabolic activation)

Row | Structure (SMILES) | mutagenic to Salmonella typhimurium Strain TA98 [1, 3] | skin sensitization (LLNA) [2] | mutagenic to Salmonella typhimurium Strain TA98 ([1]; with or without liver microsomal activation (S9 mix))
1 | O=c1c2ccccc2c2ccc3sc4ccccc4c4ccc1c2c34 [Solvent Orange 63 from Sample A, C.I. Solvent Orange 63] | not mutagenic | not skin sensitizers | –
2 | O=c1c2ccccc2c2ccc3sc4ccccc4c4ccc1c2c34 [Solvent Orange 63 from Sample B, C.I. Solvent Orange 63] | not mutagenic | not skin sensitizers | –
3 | O=c1c2ccccc2c2ccc3sc4ccccc4c4ccc1c2c34 [Solvent Orange 63 from Sample C, C.I. Solvent Orange 63] | not mutagenic | skin sensitizers | –
4 | O=c1c2ccccc2c2ccc3sc4ccccc4c4ccc1c2c34 [Solvent Orange 63 from Sample D, C.I. Solvent Orange 63] | – | skin sensitizers | mutagenic
